What follows are molecules tested on passive cutaneous anaphylactic reaction (assay: inhibition of the passive cutaneous anaphylactic (PCA) reaction in rats induced by reaginic antibodies to egg albumin). Settings: Rattus norvegicus, iv, 0.75 mg/kg, intravenously immediately before antigen.
Assay type: in vivo
Description: Diethylcarbamazin, i.e. 1-diethylcarbamoyl-4-methylpiperazine, was used as a comparison compound. Specifically, tests were run as follows:
Serum containing reaginic (IgE-like) antibody to egg albumin was prepared by injecting rats intramuscularly with 0.1 ml of a solution of the antigen (10 mg/ml) in saline together with 0.5 ml of Bordetella pertussis vaccine (Behring; 2×10^10 organisms/ml). 9-14 Days later the animals were bled from the abdominal aorta; the serum was pooled and stored at -20° C. until required. The titer of the serum, i.e. the highest dilution inducing passive cutaneous anaphylaxis (PCA) in the rat following a 48-hour latent period, was between 1:8 and 1:32. For use in these experiments the serum was diluted 1:24.
The animals were anesthetized with 2,2-dichloro-1,1-difluoroethyl-methyl ether, sold under the trademark Penthrane, and were sensitized by injecting 0.1 ml of the antiserum into the shaved abdominal flanks. After 48 hours for reaginic PCA, the animals were given an intravenous injection of 1 ml of saline solution containing 0.5% by weight of egg albumin and 0.25% by weight of Evans Blue.
After having killed and exsanguinated the animals, the size in square millimeters and the intensity, in arbitary scores, of the resulting blue spot were determined. The product of these two parameters was used to determine the degree of the reaction and the degree of reaction with no active material was taken as the standard against which to measure % inhibition of the anaphylactic reaction.
6 Animals were used per dose level and for control.
The test material was injected intravenously immediately before the antigen, using a solution in water containing 0.5% HCl and 2% of dimethylformamide. For comparative purposes there was also tested diethylcarbamoyl-4-methylpiperazine sold under the tradename Diethylcarbamazin. The volumes of the injections were varied to give the indicated dosage of the active material. The results obtained were as follows:
PCA Reaction in Rats Induced by Reaginic Antibodies
(Ovalbumin 2×cryst, and Bord. pertussis 2×10^10) Active material applied intravenously immediately before antigen.

In order of falling inhibition in vivo at 0.75 mg/kg:
1. O=C(NC1CCN(CCCn2cnc3c(NCCO)ncnc32)CC1)c1ccccc1 [Example 2j, N^6-(2-Hydroxyethyl)-9-[3-(4-benzamido-piperidino)-propyl] adenine]  44%
2. CCCCNc1ncnc2c1ncn2CCCN1CCC(NC(=O)c2ccccc2)CC1 [Example 2k, N^6-n-Butyl-9-[3-(4-Benzamido-piperidino)-propyl]-adenine]  41%

Same assay, conditions: Rattus norvegicus, iv, 1.5 mg/kg, intravenously immediately before antigen

In order of rising inhibition in vivo at 1.5 mg/kg:
1. Nc1ncnc2c1ncn2CCCN1CCC(NC(=O)Cc2ccccc2)CC1 [Example 4d, 9-{3-[4-(Phenyl-acetamido)-piperidino]-propyl}-adenine]  30%
2. O=C(NC1CCN(CCCn2cnc3c(N4CCCCC4)ncnc32)CC1)c1ccccc1 [Example 2m, 6-Piperidino-9-[3-(4-benzamido-piperidino)-propyl]-purine]  36%
3. Cc1ccccc1C(=O)NC1CCN(CCCn2cnc3c(N)ncnc32)CC1 [Example 2e, 9-{3-[4-(2-Methyl-benzamido)-piperidino]-propyl}-adenine]  39%
4. CN(C)c1ncnc2c1ncn2CCCN1CCC(NC(=O)c2ccccc2)CC1 [Example 2l, 6-Dimethylamino-9-[3-(4-benzamido-piperidino)-propyl]-purine]  43%
5. Nc1ncnc2c1ncn2CCCN1CCC(NC(=O)c2ccco2)CC1 [Example 4f, 9-{3-[4-(Furan-2-carbonylamido)-piperidino]-propyol}-adenine]  44%
6. Nc1ncnc2c1ncn2CCCN1CCC(NC(=O)c2ccc(F)cc2)CC1 [Example 2b, 9-{3-[4-(4-Fluorobenzamido)-piperidino]-propyl}-adenine]  65%
7. Cc1ccc(C(=O)NC2CCN(CCCn3cnc4c(N)ncnc43)CC2)cc1 [Example 2f, 9-{-[4-(4-Methyl-benzamido)-piperidio]-propyl}-adenine]  74%
8. Nc1ncnc2c1ncn2CCCN1CCC(NC(=O)c2ccc(Cl)cc2)CC1 [Example 4a, 9-{3-[4-(4-Chlorobenzamido)-piperidino]-propyl}-adenine]  80%

Same assay, conditions: Rattus norvegicus, iv, 60.0 mg/kg, intravenously immediately before antigen

CCN(CC)C(=O)N1CCN(C)CC1 [Diethylcarbamazin, 1-diethylcarbamoyl-4-methylpiperazine, reference compound] was tested, and the inhibition in vivo at 60 mg/kg was 58%.

From US4212866A, “Pharmaceutically active derivatives of 9-[3-(4-amino-piperidino)-propyl]-adenines” (Boehringer Mannheim GmbH, priority 1978, dated 1980)
